Test results as given in patent US8247211B2, “Glycopeptide antibiotics” (American Cyanamid Company, priority 2001, dated 2012).
Converted amounts (≈) assume the structure as drawn. Blank lines part the entries; values can stand above or below the compound they belong to.

Legend:
Test in all cases: In vitro antibacterial evaluation: minimum inhibitory concentration (MIC), broth dilution method
Format in all cases: cell-based
[1] = tested on: Enterococcus sp.; settings: broth dilution, 18 hours at 35° C.
In short: (§1)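 NCCLS M7-A2 broth dilution with Mueller-Hinton II, testing 64-0.06 μg/mL antibiotic against 5×10^5 CFU/mL inocula. Test strains include recent methicillin-, penicillin- or vancomycin-resistant clinical isolates. MIC is the lowest concentration preventing growth.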

[2] = tested on: Staphylococcus sp.; settings: broth dilution, 18 hours at 35° C.; for MIC Staphylococcus aureus-SMITH (GC 4543): strain SMITH GC 4543
In short: as §1

[3] = tested on: Streptococcus sp.; settings: broth dilution, 18 hours at 35° C.
In short: as §1

[4] = tested on: Escherichia coli; settings: broth dilution, 18 hours at 35° C.
[5] = Enterococcus faecalis (GC 4553)
[6] = Streptococcus agalactiae (GC 4564)
[7] = Streptococcus pneumoniae (ATCC 6301)
[8] = Streptococcus pneumoniae (GC 1894)
[9] = Streptococcus pneumoniae (GC 4565)
[10] = Streptococcus pyogenes (GC 4563)

MIC Enterococcus avium (GC 4558) ([1]; Enterococcus avium (GC 4558)): 8 µg/mL (≈ 6.7 µM)
MIC Enterococcus faecalis (ATCC 29212) ([1]; Enterococcus faecalis (ATCC 29212)): 16 µg/mL (≈ 13.4 µM)
MIC Enterococcus faecalis (GC 2242) ([1]; Enterococcus faecalis (GC 2242)): 16 µg/mL (≈ 13.4 µM)
MIC Enterococcus faecalis (GC 2691) ([1]; Enterococcus faecalis (GC 2691)): 16 µg/mL (≈ 13.4 µM)
MIC Enterococcus faecalis (GC 3059) ([1]; Enterococcus faecalis (GC 3059)): 32 µg/mL (≈ 26.8 µM)
MIC Enterococcus faecalis (GC 4552) ([1]; Enterococcus faecalis (GC 4552)): 32 µg/mL (≈ 26.8 µM)
MIC Enterococcus faecalis (GC 4553) [1, 5]: 8 µg/mL (≈ 6.7 µM)
MIC Enterococcus faecalis (GC 4554) ([1]; Enterococcus faecalis (GC 4554)): 32 µg/mL (≈ 26.8 µM)
MIC Enterococcus faecalis (GC 6189) ([1]; Enterococcus faecalis (GC 6189)): 16 µg/mL (≈ 13.4 µM)
MIC Enterococcus faecium (GC 2243) ([1]; Enterococcus faecium (GC 2243)): 8 µg/mL (≈ 6.7 µM)
MIC Enterococcus faecium (GC 4556) ([1]; Enterococcus faecium (GC 4556)): 32 µg/mL (≈ 26.8 µM)
MIC Enterococcus faecium (GC 4557) ([1]; Enterococcus faecium (GC 4557)): 4 µg/mL (≈ 3.35 µM)
MIC Enterococcus avium (GC 4558) [1]: 8 µg/mL (≈ 6.7 µM)
MIC Enterococcus faecalis (ATCC 29212) [1]: 16 µg/mL (≈ 13.4 µM)
MIC Enterococcus faecalis (GC 2242) [1]: 16 µg/mL (≈ 13.4 µM)
MIC Enterococcus faecalis (GC 2691) [1]: 16 µg/mL (≈ 13.4 µM)
MIC Enterococcus faecalis (GC 3059) [1]: 32 µg/mL (≈ 26.8 µM)
MIC Enterococcus faecalis (GC 4552) [1]: 32 µg/mL (≈ 26.8 µM)
MIC Enterococcus faecalis (GC 4553) [1]: 8 µg/mL (≈ 6.7 µM)
MIC Enterococcus faecalis (GC 4554) [1]: 32 µg/mL (≈ 26.8 µM)
MIC Enterococcus faecalis (GC 6189) [1]: 16 µg/mL (≈ 13.4 µM)
MIC Enterococcus faecium (GC 2243) [1]: 8 µg/mL (≈ 6.7 µM)
MIC Enterococcus faecium (GC 4556) [1]: 32 µg/mL (≈ 26.8 µM)
MIC Enterococcus faecium (GC 4557) [1]: 4 µg/mL (≈ 3.35 µM)
MIC Coagulase Negative Staphylococcus (GC 4547) [2]: 8 µg/mL (≈ 6.7 µM)
MIC Coagulase Negative Staphylococcus (GC 4548) [2]: 8 µg/mL (≈ 6.7 µM)
MIC Coagulase Negative Staphylococcus (GC 4549) [2]: 8 µg/mL (≈ 6.7 µM)
MIC Coagulase Negative Staphylococcus (GC 4551) [2]: 8 µg/mL (≈ 6.7 µM)
MIC Coagulase Negative Staphylococcus (GC 6257) [2]: 2 µg/mL (≈ 1.67 µM)
MIC Staphylococcus aureus SMITH (GC 4543) [2]: 8 µg/mL (≈ 6.7 µM)
MIC Staphylococcus aureus-SMITH (GC 4543) [2]: 8 µg/mL (≈ 6.7 µM)
MIC Streptococcus agalactiae (GC 4564) [3, 6]: 8 µg/mL (≈ 6.7 µM)
MIC Streptococcus pneumoniae (ATCC 6301) [3, 7]: 8 µg/mL (≈ 6.7 µM)
MIC Streptococcus pneumoniae (GC 1894) [3, 8]: 8 µg/mL (≈ 6.7 µM)
MIC Streptococcus pneumoniae (GC 4565) [3, 9]: 16 µg/mL (≈ 13.4 µM)
MIC Streptococcus pyogenes (GC 4563) [3, 10]: 2 µg/mL (≈ 1.67 µM)
MIC Streptococcus agalactiae (GC 4564) [3]: 8 µg/mL (≈ 6.7 µM)
MIC Streptococcus pneumoniae (ATCC 6301) [3]: 8 µg/mL (≈ 6.7 µM)
MIC Streptococcus pneumoniae (GC 1894) [3]: 8 µg/mL (≈ 6.7 µM)
MIC Streptococcus pneumoniae (GC 4565) [3]: 16 µg/mL (≈ 13.4 µM)
MIC Streptococcus pyogenes (GC 4563) [3]: 2 µg/mL (≈ 1.67 µM)
MIC Escherichia coli (GC 4560) [4]: 16 µg/mL (≈ 13.4 µM)
SMILES: COc1ccc(Oc2cccc(-c3nc4cc(CC5NC(=O)C(C(C)c6ccccc6)NC(=O)CNC(=O)C(CO)NC(=O)C(C(O)C6CNC(=N)N6C6OC(CO)C(O)C(O)C6O)NC(=O)C(C(O)C6CNC(=N)N6)NC5=O)ccc4o3)c2)cc1 (stereo not shown) [Example 35]
MIC Staphylococcus haemolyticus (GC 4546) [2]: 8 µg/mL (≈ 6.7 µM)

MIC Enterococcus avium (GC 4558) ([1]; Enterococcus avium (GC 4558)): 64 µg/mL (≈ 60.3 µM)
MIC Enterococcus faecalis (GC 4553) [1, 5]: 64 µg/mL (≈ 60.3 µM)
MIC Enterococcus faecium (GC 4557) ([1]; Enterococcus faecium (GC 4557)): 32 µg/mL (≈ 30.1 µM)
MIC Enterococcus avium (GC 4558) [1]: 64 µg/mL (≈ 60.3 µM)
MIC Enterococcus faecalis (GC 4553) [1]: 64 µg/mL (≈ 60.3 µM)
MIC Enterococcus faecium (GC 4557) [1]: 32 µg/mL (≈ 30.1 µM)
MIC Coagulase Negative Staphylococcus (GC 4547) [2]: 32 µg/mL (≈ 30.1 µM)
MIC Coagulase Negative Staphylococcus (GC 4548) [2]: 32 µg/mL (≈ 30.1 µM)
MIC Coagulase Negative Staphylococcus (GC 4549) [2]: 64 µg/mL (≈ 60.3 µM)
MIC Coagulase Negative Staphylococcus (GC 4551) [2]: 64 µg/mL (≈ 60.3 µM)
MIC Coagulase Negative Staphylococcus (GC 6257) [2]: 16 µg/mL (≈ 15.1 µM)
MIC Staphylococcus aureus SMITH (GC 4543) [2]: 64 µg/mL (≈ 60.3 µM)
MIC Staphylococcus aureus-SMITH (GC 4543) [2]: 64 µg/mL (≈ 60.3 µM)
MIC Streptococcus agalactiae (GC 4564) [3, 6]: 32 µg/mL (≈ 30.1 µM)
MIC Streptococcus pneumoniae (ATCC 6301) [3, 7]: 32 µg/mL (≈ 30.1 µM)
MIC Streptococcus pneumoniae (GC 1894) [3, 8]: 32 µg/mL (≈ 30.1 µM)
MIC Streptococcus pneumoniae (GC 4565) [3, 9]: 64 µg/mL (≈ 60.3 µM)
MIC Streptococcus pyogenes (GC 4563) [3, 10]: 32 µg/mL (≈ 30.1 µM)
MIC Streptococcus agalactiae (GC 4564) [3]: 32 µg/mL (≈ 30.1 µM)
MIC Streptococcus pneumoniae (ATCC 6301) [3]: 32 µg/mL (≈ 30.1 µM)
MIC Streptococcus pneumoniae (GC 1894) [3]: 32 µg/mL (≈ 30.1 µM)
MIC Streptococcus pneumoniae (GC 4565) [3]: 64 µg/mL (≈ 60.3 µM)
MIC Streptococcus pyogenes (GC 4563) [3]: 32 µg/mL (≈ 30.1 µM)
MIC Escherichia coli (ATCC 25922) [4]: 64 µg/mL (≈ 60.3 µM)
MIC Escherichia coli (GC 4559) [4]: 64 µg/mL (≈ 60.3 µM)
MIC Escherichia coli (GC 4560) [4]: 32 µg/mL (≈ 30.1 µM)
SMILES: CC(c1ccccc1)C1NC(=O)CNC(=O)C(CO)NC(=O)C(C(O)C2CNC(=N)N2C2OC(CO)C(O)C(O)C2O)NC(=O)C(C(O)C2CNC(=N)N2)NC(=O)C(Cc2ccc3oc(-c4ccoc4)nc3c2)NC1=O (stereo not drawn) [Example 38, Cyclo[3-[2-(3-furyl)-1,3-benzoxazol-5-yl]alanyl-3-(2-iminoimidazolidin-4-yl)seryl-3-(3-hexopyranosyl-2-iminoimidazolidin-4-yl)serylserylglycyl-β-methylphenylalanyl]]
MIC Staphylococcus haemolyticus (GC 4546) [2]: 16 µg/mL (≈ 15.1 µM)
